Measured values taken from US20250205249A1, “COMPOSITION FOR USE IN ENHANCING, BOOSTING, RESTORING AND/OR PREVENTING THE DECLINE OF COGNITIVE FUNCTIONS, ADJUVANT COMPOSITION, METHOD FOR USING THE COMPOSITION OR ADJUVANT COMPOSITION, AND KIT HAVING THE COMPOSITION OR ADJUVANT COMPOSITION” (Instytut Badawczy Innowacyjno Rozwojowy "Biotomed" Sp. Z O.O, priority 2023, published 2025).
Like-named read-outs stand apart in the source and are kept apart here. Marks after values point to notes of the source that are not given here.

Experiments:
[1] = tested on: differentiated SH-SY5Y cells; experiment: Neuroprotection against H2O2, preincubation variant; assay type: cell-based, human
Description: (§1) Human neuroblastoma cells of the SH-SY5Y lineage were chosen to perform the experiment.
(§2) Based on the literature review and research work, hydrogen peroxide H2O2 was chosen as the neurotoxin.

[2] = tested on: differentiated SH-SY5Y neuroblastoma cells; experiment: Neuroprotection against H2O2, coincubation variant; assay type: cell-based, human; settings: for Increase in viability relative to cells treated with hydrogen peroxide: 24 h co-incubation, H2O2 at EC50; for Improvement in cell viability relative to the positive control: coincubation with H2O2
Description: as §1, §2

[3] = tested on: differentiated neuroblastoma cells (SH-SY5Y); experiment: Neuroprotection against H2O2, postincubation variant; assay type: cell-based, human; settings: 1 h and 3 h H2O2 at EC50, then 24 h post-incubation
Description: as §1
Two time variants of incubation with hydrogen peroxide in differentiated neuroblastoma culture, i.e. 1 h and 3 h, were used in post-incubation.

[4] = tested on: differentiated SH-SY5Y neuroblastoma cells; experiment: Early apoptosis of H2O2-treated cells, coincubation variant; assay type: cell-based, human; settings: 24 h coincubation with H2O2
Description: A coincubation variant was used, i.e. simultaneous administration of betulin or a reference drug and H2O2. H2O2 concentrations were EC50 or EC80 (resulting in a 50% and 80% reduction in cell viability in viability assays). Betulin concentrations were 1 μM and 5 μM, while NAC concentrations were 0.1 mM and 1 mM. The coincubation time of the test substances with H2O2 was 24 h.

[5] = tested on: rats with Alzheimer-like neurodegeneration; experiment: Beam walking test (motor coordination); assay type: in vivo, Wistar rats; settings: 5th day of testing, AlCl3 rats
Description: (§3) The study was conducted on Wistar rats weighing 220-250 g. All animals were subjected to two weeks of observation prior to the experiment to exclude infection. Rats were housed in standard cages, 5 individuals in each. The animals stayed in a room with a temperature of 22±2° C., air humidity 60-70% and in natural lighting (12/12 in a day/night cycle).
(§4) The Alzheimer's disease model was induced by administering aluminum chloride AICl3 (200 mg/kg body weight, i.g.) to the animals for 120 days. […] Animals were assigned to groups: control group receiving saline (sham operation), group with AlCl3 without treatment and group with AlCl3 receiving betulin (100 mg/kg/day, i.g., within the last 50% of the days of the experiment) and betulin in the complex with cyclodextrin (100 mg/kg/day, i.g., in the last 50% of the days of the experiment). Betulin or betulin in a complex with cyclodextrin was administered orally with an intragastric probe in a 2% starch emulsion, reflecting the composition of the finished preparation given in the examples of use.

[6] = tested on: oxidative stress parameters (GSH, GSSG, G6PD, glutathione reductase, glutathione-S-transferase, GPO); experiment: Glutathione content and antioxidant enzymes activities in brain hemispheres during Al-intoxication; assay type: in vivo, Wistar rats
Excerpt: Influence of Betulin on Oxidative Stress Parameters in Rats with Alzheimer-Like Neurodegeneration

TNFα = settings: 100 mg/kg/day, i.g.
Description: as §3
(§5) The Alzheimer's disease model was induced by administering aluminum chloride AICl3 (200 mg/kg body weight, i.g.) to the animals for 120 days. […] Animals were assigned to groups: control group receiving saline (sham operation), group with AlCl3 without treatment and group with AlCl3 receiving betulin (100 mg/kg/day, i.g., within the last 50% of the days of the experiment) and betulin in the complex with cyclodextrin (100 mg/kg/day, i.g., in the last 50% of the days of the experiment).
(§6) On the last day of the experiment, the animals were anaesthetized. Brains were quickly collected and then divided into different areas. The entire procedure was carried out in a cold room (+4° C.) on ice, and the samples were frozen in liquid nitrogen and stored in an ultra-low temperature refrigerator for further analysis.
(§7) In order to measure rat brain damage caused by aluminum chloride, biochemical determinations were carried out on the collected brain tissue fragments.

APLP2 = settings: 100 mg/kg/day, i.g.
Description: as §3, §5, §6, §7

Aβ1-42 protein = settings: 100 mg/kg/day, i.g.
Description: as §3, §5, §6, §7

[7] = tested on: rats with Alzheimer-like neurodegeneration; settings: Morris water maze, 5th day of testing; AlCl3 rats
Description: as §3, §4

[8] = tested on: differentiated SH-SY5Y neuroblastoma cells; settings: XTT assay, tested 1-30 μM
Description: as §1

[9] = cited from earlier work; for Total daily oral dose may reach: as dietary supplement (HP-β-cyclodextrin: as oral pharmaceutical); for NOAEL (No Observed Adverse Effect Level): oral intake
renal tubular epithelium = settings: cited from earlier work
[10] = brain hemispheres, Al-intoxication
[11] = rat hippocampal homogenate, AlCl3 model

In the case of `CC(=O)N[C@@H](CS)C(=O)O` [NAC, N-acetyl-L-cysteine, reference compound], the “Protective effect against H2O2 (in words)” value ([1]; 24 h preincubation, NAC 2.5 mM to 0.01 mM, H2O2 at EC50) is reported as “statistically significant (####p<0.001) protective effect on cells (no decrease in viability)”, the “Increase in viability relative to cells treated with hydrogen peroxide” value ([2]; NAC 0.01 mM) is reported as 12% and the “Increase in viability relative to cells treated with hydrogen peroxide” value ([2]; NAC 0.1 mM) is reported as 40%. For the same molecule, the “Increase in viability relative to cells treated with hydrogen peroxide” value ([2]; NAC 1 mM) was 54%, the “Protective effect after H2O2 treatment (in words)” value [3] was “induced a protective effect in a NAC concentration-dependent manner” and the “Induction of early apoptosis (percentage of apoptotic cells)” value ([4]; NAC 0.1 mM) was 12.2%. The “Induction of early apoptosis (percentage of apoptotic cells)” value ([4]; NAC 1 mM) was 12.0%.
In the case of `C=C(C)[C@@H]1CC[C@]2(CO)CC[C@]3(C)[C@H](CC[C@@H]4[C@@]5(C)CC[C@H](O)C(C)(C)[C@@H]5CC[C@]43C)[C@@H]12` [betulin], the “Percent of successful trials” value [5] is reported as 100^b %, the “Time to reach the shelter” value [5] is reported as 18.6 ± 3.6^ab seconds and the “Effect on GSH, GR and GSTs activity (in words)” value ([6]; animals with induced AD) is reported as “significant increase in the activity of all enzymes”. The “Effect on GSSG, G6PD and GPO activity (in words)” value ([6]; animals with induced AD) was “significant decrease in the activity of these enzymes”, the G6PD [6, 10] was 28.61 ± 1.62^b nmol NADPH/min/mg protein and the GPO [6, 10] was 33.63 ± 2.09^b umol GSH/min/mg protein. The GSH [6, 10] was 26.09 ± 2.19^b nmol/mg protein, the GSSG [6, 10] was 0.112 ± 0.002^b nmol/mg protein and the Glutathione reductase [6, 10] was 11.59 ± 1.39 nmol NADPH/min/mg protein. For the same molecule, the Glutathione-S-transferase [6, 10] was 129.90 ± 10.45^b nmol CDNB/min/mg protein, the “Protective effect against H2O2 (in words)” value ([1]; betulin 1, 2, 5 and 10 μM, toxin at EC50) was “statistically significant protective effect” and the “Protective effect against H2O2 (in words)” value ([1]; betulin 15 and 20 μM) was “no protective effect”. The “Improvement in cell viability relative to the positive control” value ([2]; betulin 1 μM) was 27%, the “Improvement in cell viability relative to the positive control” value ([2]; betulin 5 μM) was 18% and the “Protective effect after H2O2 treatment (in words)” value [3] was “no increase in viability relative to the positive control”. For the same molecule, the “Percentage of apoptotic cells” value ([4]; betulin 1 μM) was 2.7%, the “Percentage of apoptotic cells” value ([4]; betulin 5 μM) was 2.5% and the “Effect on TNFα concentration in hippocampal homogenates (in words)” value (TNFα) was “reduced the concentration of TNFα”. The TNF-α (TNFα; [11]) was 5.88 ± 0.39 ^b pg/mg, the “Effect on APLP2 concentration in hippocampal homogenates (in words)” value (APLP2) was “reduced the concentration of APLP2” and the APLP2 (APLP2; rat brain hippocampus homogenate, AlCl3 model) was 588.1 ± 36.4^ab pg/100 mg. The “Effect on β-amyloid concentration in hippocampal homogenates (in words)” value (Aβ1-42 protein) was “reduced the concentration of β-amyloid”, the “Protein Aβ1-42” value (Aβ1-42 protein; [11]) was 83.25 ± 6.40^ab pg/100 mg and the “Time spent in a target quadrant” value [7] was 26 ± 8^ab seconds. The “Time to reach the platform” value [7] was 38 ± 7^b seconds and the “Concentration above which a cytotoxic effect is induced (viability below the 70% threshold)” value [8] was greater than 20 µM.
For `OC[C@H]1O[C@@H]2O[C@H]3[C@H](O)[C@@H](O)[C@@H](O[C@H]4[C@H](O)[C@@H](O)[C@@H](O[C@H]5[C@H](O)[C@@H](O)[C@@H](O[C@H]6[C@H](O)[C@@H](O)[C@@H](O[C@H]7[C@H](O)[C@@H](O)[C@@H](O[C@H]1[C@H](O)[C@H]2O)O[C@@H]7CO)O[C@@H]6CO)O[C@@H]5CO)O[C@@H]4CO)O[C@@H]3CO` [α-cyclodextrin], the “Total daily oral dose may reach” value [9] is given as 6000 mg/day and the “Renal toxicity after parenteral administration (in words)” value (renal tubular epithelium; rat, in vivo) is given as “renal toxicity at relatively low doses”.
In the case of `OC[C@H]1O[C@@H]2O[C@H]3[C@H](O)[C@@H](O)[C@@H](O[C@H]4[C@H](O)[C@@H](O)[C@@H](O[C@H]5[C@H](O)[C@@H](O)[C@@H](O[C@H]6[C@H](O)[C@@H](O)[C@@H](O[C@H]7[C@H](O)[C@@H](O)[C@@H](O[C@H]8[C@H](O)[C@@H](O)[C@@H](O[C@H]1[C@H](O)[C@H]2O)O[C@@H]8CO)O[C@@H]7CO)O[C@@H]6CO)O[C@@H]5CO)O[C@@H]4CO)O[C@@H]3CO` [β-cyclodextrin], the “Total daily oral dose may reach” value [9] is listed as 500 mg/day and the “NOAEL (No Observed Adverse Effect Level)” value [9] is listed as 10 mg/kg/day.
In the case of `OC[C@H]1O[C@@H]2O[C@H]3[C@H](O)[C@@H](O)[C@@H](O[C@H]4[C@H](O)[C@@H](O)[C@@H](O[C@H]5[C@H](O)[C@@H](O)[C@@H](O[C@H]6[C@H](O)[C@@H](O)[C@@H](O[C@H]7[C@H](O)[C@@H](O)[C@@H](O[C@H]8[C@H](O)[C@@H](O)[C@@H](O[C@H]9[C@H](O)[C@@H](O)[C@@H](O[C@H]1[C@H](O)[C@H]2O)O[C@@H]9CO)O[C@@H]8CO)O[C@@H]7CO)O[C@@H]6CO)O[C@@H]5CO)O[C@@H]4CO)O[C@@H]3CO` [γ-cyclodextrin], the “Total daily oral dose may reach” value [9] is listed as 10,000 mg/day, the “NOAEL (No Observed Adverse Effect Level)” value [9] is listed as 100 mg/kg/day and the “Dose showing only reversible vacuolation in the renal tubular epithelium” value (renal tubular epithelium; rats, high doses) is listed as greater than 600 mg/kg.
In the case of HP-β-cyclodextrin, the “Total daily oral dose may reach” value [9] is listed as 8000 mg/day.
In the case of RM-β-cyclodextrin, the “Renal toxicity after parenteral administration (in words)” value (renal tubular epithelium; parenteral administration) is listed as “renal toxicity at relatively low doses”.
